The assay has as its target Tyrosine-protein kinase SYK (Homo sapiens, UniProt P43405). Briefly: Syk Kinase Inhibition Assay: The in vitro inhibitory activity of the compound of the present invention against Syk kinase activity was assayed under the following conditions: the purified human Syk protein used in the test were purchased from Carna Biosciences, Inc. For the inhibitory activity assay on the compound, the compound of the present invention was first serially diluted with dimethyl ….
Description: Syk Kinase Inhibition Assay: The in vitro inhibitory activity of the compound of the present invention against Syk kinase activity was assayed under the following conditions: the purified human Syk protein used in the test were purchased from Carna Biosciences, Inc. For the inhibitory activity assay on the compound, the compound of the present invention was first serially diluted with dimethyl sulfoxide (DMSO). […] The kinase reaction was stopped by the addition thereto of EDTA.
`NC(=O)c1nnc(N[C@@H]2CCCC[C@@H]2N)nc1Nc1nc(-c2ccccc2)cs1`: the half-maximal inhibitory concentration (IC50) – broadly, the concentration needed to halve the response being measured – was 0.38 nM. This lies in the sub-nanomolar range.
The value for `Cc1cc(Nc2nc(N[C@@H]3CCOC[C@@H]3N)nnc2C(N)=O)cc2ccsc12` was 0.37 nM.
`NC(=O)c1nnc(N[C@@H]2CCOC[C@@H]2N)nc1Nc1csc2ccccc12`: the half-maximal inhibitory concentration (IC50) is 0.89 nM.
